Results from patent publication US20060264494A1, “Heterocyclic amide derivatives which process glycogen phorylase inhibitory activity” (AstraZeneca AB, priority 2003, published 2006).
In brackets after ≈: the same amount, converted by molar mass. Read-outs that look alike come from different tables or passages of the source.

What was measured:
[1] = molecular target: T1, Human recombinant liver glycogen phosphorylase a (hrl GPa) (Homo sapiens, UniProt P06737); experiment: glycogen phosphorylase inhibition, multienzyme coupled assay; type: biochemical
T1 sequence (P06737 1-847): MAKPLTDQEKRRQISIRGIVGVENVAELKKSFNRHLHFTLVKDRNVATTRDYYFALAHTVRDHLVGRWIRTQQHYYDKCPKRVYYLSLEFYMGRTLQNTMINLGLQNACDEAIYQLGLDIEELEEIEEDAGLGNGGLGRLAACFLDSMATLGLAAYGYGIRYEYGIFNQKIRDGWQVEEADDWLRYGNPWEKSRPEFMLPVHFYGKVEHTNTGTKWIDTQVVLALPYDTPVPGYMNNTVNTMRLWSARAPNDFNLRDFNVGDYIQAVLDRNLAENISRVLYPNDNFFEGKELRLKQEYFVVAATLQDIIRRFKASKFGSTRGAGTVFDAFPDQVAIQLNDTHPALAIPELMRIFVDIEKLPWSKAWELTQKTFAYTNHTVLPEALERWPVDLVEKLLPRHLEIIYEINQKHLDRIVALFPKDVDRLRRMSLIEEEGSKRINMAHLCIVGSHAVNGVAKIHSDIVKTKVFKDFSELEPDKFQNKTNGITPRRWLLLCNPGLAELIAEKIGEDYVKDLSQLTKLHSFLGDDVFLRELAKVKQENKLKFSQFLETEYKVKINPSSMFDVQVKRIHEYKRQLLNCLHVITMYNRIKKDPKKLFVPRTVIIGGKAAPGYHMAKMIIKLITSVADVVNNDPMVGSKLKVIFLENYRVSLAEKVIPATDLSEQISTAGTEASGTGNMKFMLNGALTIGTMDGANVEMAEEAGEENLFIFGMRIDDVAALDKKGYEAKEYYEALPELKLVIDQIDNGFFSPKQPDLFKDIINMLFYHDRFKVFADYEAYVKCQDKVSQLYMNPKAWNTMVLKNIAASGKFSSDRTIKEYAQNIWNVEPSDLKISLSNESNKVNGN
Method: The activity of the compounds is determined by measuring the inhibitory effect of the compounds on glycogen degradation, the production of glucose-1-phosphate from glycogen is monitored by the multienzyme coupled assay, as described in EP 0 846 464 A2, general method of Pesce et al (Pesce, M A, Bodourian, S H, Harris, R C, and Nicholson, J F (1977) Clinical Chemistry 23, […]). The reactions were in 384 well microplate format in a volume of 50 μl. The change in fluorescence due to the conversion of the co-factor NAD to NADH is measured at 340 nm excitation, 465 nm emission in a Tecan Ultra Multifunctional Microplate Reader. The reaction is in 50 mM HEPES, 3.5 mM KH2PO4, 2.5 mM MgCl2, 2.5 mM ethylene glycol-bis(b-aminoethyl ether) N,N,N′,N′-tetraacetic acid, 100 mM KCl, 8 mM D-(+)-glucose pH7.2, containing 0.5 mM dithiothreitol, the assay buffer solution. Human recombinant liver glycogen phosphorylase a (hrl GPa) 20 nM is pre-incubated in assay buffer solution with 6.25 mM NAD, 1.25 mg type III glycogen at 1.25 mg ml^−1 the reagent buffer, for 30 minutes. The coupling enzymes, phosphoglucomutase and glucose-6-phosphate dehydrogenase (Sigma) are prepared in reagent buffer, final concentration 0.25 Units per well. 20 μl of the hrl GPa solution is added to 10 μl compound solution and the reaction started with the addition of 20 μl coupling enzyme solution. Compounds to be tested are prepared in 10 μl 5% DMSO in assay buffer solution, with final concentration of 1% DMSO in the assay. The non-inhibited activity of GPa is measured in the presence of 10 μl 5% DMSO in assay buffer solution and maximum inhibition measured in the presence of 5 mgs ml^−1 N-ethylmaleimide. After 6 hours at 30° C. Relative Fluoresence Units (RFUs) are measured at 340 nm excitation, 465 nm emission.
The assay is performed at a test concentration of inhibitor of 10 μM or 100 μM.

[2] = conscious dogs, following a glucagon challenge; cited from earlier work
[3] = db/db and ob/ob mice; dose related; cited from earlier work
[4] = test system: hepatocytes; conditions: cited from earlier work
[5] = thermodynamic solubility; type: physicochemical; conditions: 0.1 M phosphate buffer, pH 7.4, aqueous buffer, thermodynamic from solid, 0.1 M phosphate at pH7.4 for 24 hours
[6] = hrl GPa 20 nM, 6 hours at 30° C., read-out: Activity (μM) IC50

2-Chloro-N-{(1R,2R)-1-[[(2S)-2,3-dihydroxypropanoyl](methyl)amino]-2,3-dihydro-1H-inden-2-yl}-6H-thieno[2,3-b]pyrrole-5-carboxamide [Example 8]
IC50 [1, 6]: 0.07 µM
IC50 ([1]; text b160, unit printed as nm, read-out: IC50): 0.176 µM

CCN1C(C)=C(C(=O)OC(C)C)C(c2ccccc2Cl)C2=C1COC2=O (stereo not drawn) [Bay R 3401]
arterial plasma glucose [2]: reduced significantly
hepatic glucose output [2]: reduced significantly

CN(C)C(=O)[C@H](O)[C@H](Cc1ccccc1)NC(=O)c1cc2cc(Cl)ccc2[nH]1 [CP91149]
plasma glucose concentration [3]: reduced
glucagon stimulated glycogenolysis [4]: reduce
glucose output in hepatocytes [4]: reduce

O=C(N[C@@H](Cc1ccc(F)cc1)C(=O)N1CCC(O)CC1)c1cc2cc(Cl)ccc2[nH]1 [CP320626]
plasma glucose concentration [3]: reduced
glucagon stimulated glycogenolysis [4]: reduce
glucose output in hepatocytes [4]: reduce

COCC(=O)N(C)[C@@H]1c2ccccc2C[C@H]1NC(=O)c1cc2cc(Cl)sc2[nH]1 [Example 1, 2-Chloro-N-{(1R,2R)-1-[(methoxyacetyl)(methyl)amino]-2,3-dihydro-1H-inden-2-yl}-6H-thieno[2,3-b]pyrrole-5-carboxamide]
IC50 ([1]; text b160, read-out: IC50): 0.265 µM

CN(C(=O)[C@@H](N)CO)[C@@H]1c2ccccc2C[C@H]1NC(=O)c1cc2sc(Cl)c(Cl)c2[nH]1.Cl [Example 27, 2,3-Dichloro-N-{(1R,2R)-1-[methyl(L-seryl)amino]-2,3-dihydro-1H-inden-2-y}-4H-thieno[3,2-b]pyrrole-5-carboxamide hydrochloride]
solubility at 24 h [5]: 50 µM
IC50 [1, 6]: 0.11 µM

CC(=O)N(C)[C@@H]1c2ccccc2C[C@H]1NC(=O)c1cc2sc(Cl)c(Cl)c2[nH]1 [Reference Eg 1]
solubility at 24 h [5]: 1.4 µM (≈ 0.591 µg/mL)
IC50 [1, 6]: ~0.4 µM
